Patent publication US6914045B2, “Glycopeptide antibiotics” (Wyeth Holdings Corporation, priority 2001, dated 2005)
In brackets after ≈: the same amount, converted by molar mass.

How the values were obtained:
Experiment in all cases: in vitro antibacterial evaluation, MIC by broth dilution
Type in all cases: cell-based
Staphylococcus sp. = details: broth dilution, 18 hours at 35° C.
Procedure, shortened: (§1)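 MIC = lowest antibiotic concentration preventing visible growth; inoculum 5×10^5 CFU/mL; drug range 64-0.06 μg/mL; Muller-Hinton II […]; NCCLS M7-A2 guidance.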

Streptococcus sp. = details: broth dilution, 18 hours at 35° C.
Procedure, shortened: as §1

Escherichia coli = details: 18 hours at 35° C.
Procedure, shortened: as §1

Enterococcus sp. = details: broth dilution, 18 hours at 35° C.
Procedure, shortened: as §1

CC(c1ccccc1)C1NC(=O)CNC(=O)C(CO)NC(=O)C(C(O)C2CNC(=N)N2C2OC(CO)C(O)C(O)C2O)NC(=O)C(C(O)C2CNC(=N)N2)NC(=O)C(Cc2ccc(OC3OC(CO)C(OC4OC(CO)C(O)C5OC(c6ccccc6)OC45)C(O)C3O)cc2)NC1=O (single isomer, unassigned) [Example 104b, Cyclo[glycyl-β-methylphenylalanyl-O-[4-O-(2,3-O-benzylidenehexopyranosyl)hexopyranosyl]-tyrosyl-3-(2-iminoimidazolidin-4-yl)seryl-3-(3-hexopyranosyl-2-iminoimidazolidin-4-yl)-serylseryl]]
MIC Coagulase Negative Staphylococcus (GC 4547) (Staphylococcus sp.): 4 µg/mL (≈ 2.89 µM) | MIC Coagulase Negative Staphylococcus (GC 4548) (Staphylococcus sp.): 4 µg/mL (≈ 2.89 µM) | MIC Coagulase Negative Staphylococcus (GC 4549) (Staphylococcus sp.): 4 µg/mL (≈ 2.89 µM) | MIC Coagulase Negative Staphylococcus (GC 4551) (Staphylococcus sp.): 8 µg/mL (≈ 5.78 µM) | MIC Coagulase Negative Staphylococcus (GC 6257) (Staphylococcus sp.): 2 µg/mL (≈ 1.45 µM) | MIC Staphylococcus aureus (ATCC 29213) (Staphylococcus sp.): 0.5 µg/mL (≈ 0.361 µM) | MIC Staphylococcus aureus (GC 1131) (Staphylococcus sp.): 0.5 µg/mL (≈ 0.361 µM) | MIC Staphylococcus aureus (GC 3051) (Staphylococcus sp.): 0.5 µg/mL (≈ 0.361 µM) | MIC Staphylococcus aureus (GC 3053) (Staphylococcus sp.): 0.5 µg/mL (≈ 0.361 µM) | MIC Staphylococcus aureus (GC 4541) (Staphylococcus sp.): 0.5 µg/mL (≈ 0.361 µM) | MIC Staphylococcus aureus (GC 4542) (Staphylococcus sp.): 0.5 µg/mL (≈ 0.361 µM) | MIC Staphylococcus aureus (GC 4544) (Staphylococcus sp.): 0.5 µg/mL (≈ 0.361 µM) | MIC Staphylococcus aureus (GC 4545) (Staphylococcus sp.): 0.5 µg/mL (≈ 0.361 µM) | MIC Staphylococcus aureus-SMITH (GC 4543) (Staphylococcus sp.): 0.5 µg/mL (≈ 0.361 µM) | MIC Staphylococcus haemolyticus (GC 4546) (Staphylococcus sp.): 0.5 µg/mL (≈ 0.361 µM) | MIC Staphylococcus haemolyticus (GC 4546) (Staphylococcus sp.; strain GC 4546): 0.5 µg/mL (≈ 0.361 µM) | MIC Coagulase Negative Staphylococcus (GC 4547) (Staphylococcus sp.; strain GC 4547): 4 µg/mL (≈ 2.89 µM) | MIC Coagulase Negative Staphylococcus (GC 4548) (Staphylococcus sp.; strain GC 4548): 4 µg/mL (≈ 2.89 µM) | MIC Coagulase Negative Staphylococcus (GC 4549) (Staphylococcus sp.; strain GC 4549): 4 µg/mL (≈ 2.89 µM) | MIC Coagulase Negative Staphylococcus (GC 4551) (Staphylococcus sp.; strain GC 4551): 8 µg/mL (≈ 5.78 µM) | MIC Coagulase Negative Staphylococcus (GC 6257) (Staphylococcus sp.; strain GC 6257): 2 µg/mL (≈ 1.45 µM) | MIC Staphylococcus aureus-SMITH (GC 4543) (Staphylococcus sp.; strain SMITH GC 4543): 0.5 µg/mL (≈ 0.361 µM) | MIC Staphylococcus aureus (ATCC 29213) (Staphylococcus sp.; strain ATCC 29213): 0.5 µg/mL (≈ 0.361 µM) | MIC Staphylococcus aureus (GC 1131) (Staphylococcus sp.; strain GC 1131): 0.5 µg/mL (≈ 0.361 µM) | MIC Staphylococcus aureus (GC 3051) (Staphylococcus sp.; strain GC 3051): 0.5 µg/mL (≈ 0.361 µM) | MIC Staphylococcus aureus (GC 3053) (Staphylococcus sp.; strain GC 3053): 0.5 µg/mL (≈ 0.361 µM) | MIC Staphylococcus aureus (GC 4541) (Staphylococcus sp.; strain GC 4541): 0.5 µg/mL (≈ 0.361 µM) | MIC Staphylococcus aureus (GC 4542) (Staphylococcus sp.; strain GC 4542): 0.5 µg/mL (≈ 0.361 µM) | MIC Staphylococcus aureus (GC 4544) (Staphylococcus sp.; strain GC 4544): 0.5 µg/mL (≈ 0.361 µM) | MIC Staphylococcus aureus (GC 4545) (Staphylococcus sp.; strain GC 4545): 0.5 µg/mL (≈ 0.361 µM) | MIC Streptococcus agalactiae (GC 4564) (Streptococcus sp.; Streptococcus agalactiae (GC 4564)): 0.5 µg/mL (≈ 0.361 µM) | MIC Streptococcus pneumoniae (ATCC 6301) (Streptococcus sp.; Streptococcus pneumoniae (ATCC 6301)): 0.12 µg/mL (≈ 0.0867 µM) | MIC Streptococcus pneumoniae (GC 1894) (Streptococcus sp.; Streptococcus pneumoniae (GC 1894)): 0.12 µg/mL (≈ 0.0867 µM) | MIC Streptococcus pneumoniae (GC 4565) (Streptococcus sp.; Streptococcus pneumoniae (GC 4565)): 0.12 µg/mL (≈ 0.0867 µM) | MIC Streptococcus pyogenes (GC 4563) (Streptococcus sp.; Streptococcus pyogenes (GC 4563)): 0.12 µg/mL (≈ 0.0867 µM) | MIC Streptococcus pneumoniae (ATCC 6301) (Streptococcus sp.; strain ATCC 6301): 0.12 µg/mL (≈ 0.0867 µM) | MIC Streptococcus pneumoniae (GC 1894) (Streptococcus sp.; strain GC 1894): 0.12 µg/mL (≈ 0.0867 µM) | MIC Streptococcus pyogenes (GC 4563) (Streptococcus sp.; strain GC 4563): 0.12 µg/mL (≈ 0.0867 µM) | MIC Streptococcus agalactiae (GC 4564) (Streptococcus sp.; strain GC 4564): 0.5 µg/mL (≈ 0.361 µM) | MIC Streptococcus pneumoniae (GC 4565) (Streptococcus sp.; strain GC 4565): 0.12 µg/mL (≈ 0.0867 µM) | MIC Escherichia coli (ATCC 25922) (Escherichia coli; strain ATCC 25922): >0.5 µg/mL | MIC Escherichia coli (GC 4559) (Escherichia coli; strain GC 4559): >0.5 µg/mL | MIC Escherichia coli (GC 4560) (Escherichia coli; strain GC 4560): 0.5 µg/mL (≈ 0.361 µM) | MIC Enterococcus avium (GC 4558) (Enterococcus sp.; Enterococcus avium (GC 4558)): 0.5 µg/mL (≈ 0.361 µM) | MIC Enterococcus faecalis (ATCC 29212) (Enterococcus sp.; Enterococcus faecalis (ATCC 29212)): 0.5 µg/mL (≈ 0.361 µM) | MIC Enterococcus faecalis (GC 2242) (Enterococcus sp.; Enterococcus faecalis (GC 2242)): 0.5 µg/mL (≈ 0.361 µM) | MIC Enterococcus faecalis (GC 2691) (Enterococcus sp.; Enterococcus faecalis (GC 2691)): 0.5 µg/mL (≈ 0.361 µM) | MIC Enterococcus faecalis (GC 3059) (Enterococcus sp.; Enterococcus faecalis (GC 3059)): 0.5 µg/mL (≈ 0.361 µM) | MIC Enterococcus faecalis (GC 4552) (Enterococcus sp.; Enterococcus faecalis (GC 4552)): 0.5 µg/mL (≈ 0.361 µM) | MIC Enterococcus faecalis (GC 4553) (Enterococcus sp.; Enterococcus faecalis (GC 4553)): 0.5 µg/mL (≈ 0.361 µM) | MIC Enterococcus faecalis (GC 4554) (Enterococcus sp.; Enterococcus faecalis (GC 4554)): 0.5 µg/mL (≈ 0.361 µM) | MIC Enterococcus faecalis (GC 6189) (Enterococcus sp.; Enterococcus faecalis (GC 6189)): 0.5 µg/mL (≈ 0.361 µM) | MIC Enterococcus faecium (GC 2243) (Enterococcus sp.; Enterococcus faecium (GC 2243)): 0.5 µg/mL (≈ 0.361 µM) | MIC Enterococcus faecium (GC 4556) (Enterococcus sp.; Enterococcus faecium (GC 4556)): 0.5 µg/mL (≈ 0.361 µM) | MIC Enterococcus faecium (GC 4557) (Enterococcus sp.; Enterococcus faecium (GC 4557)): 0.5 µg/mL (≈ 0.361 µM) | MIC Enterococcus faecalis (ATCC 29212) (Enterococcus sp.; strain ATCC 29212): 0.5 µg/mL (≈ 0.361 µM) | MIC Enterococcus faecalis (GC 2242) (Enterococcus sp.; strain GC 2242): 0.5 µg/mL (≈ 0.361 µM) | MIC Enterococcus faecium (GC 2243) (Enterococcus sp.; strain GC 2243): 0.5 µg/mL (≈ 0.361 µM) | MIC Enterococcus faecalis (GC 2691) (Enterococcus sp.; strain GC 2691): 0.5 µg/mL (≈ 0.361 µM) | MIC Enterococcus faecalis (GC 3059) (Enterococcus sp.; strain GC 3059): 0.5 µg/mL (≈ 0.361 µM) | MIC Enterococcus faecalis (GC 4552) (Enterococcus sp.; strain GC 4552): 0.5 µg/mL (≈ 0.361 µM) | MIC Enterococcus faecalis (GC 4553) (Enterococcus sp.; strain GC 4553): 0.5 µg/mL (≈ 0.361 µM) | MIC Enterococcus faecalis (GC 4554) (Enterococcus sp.; strain GC 4554): 0.5 µg/mL (≈ 0.361 µM) | MIC Enterococcus faecium (GC 4556) (Enterococcus sp.; strain GC 4556): 0.5 µg/mL (≈ 0.361 µM) | MIC Enterococcus faecium (GC 4557) (Enterococcus sp.; strain GC 4557): 0.5 µg/mL (≈ 0.361 µM) | MIC Enterococcus avium (GC 4558) (Enterococcus sp.; strain GC 4558): 0.5 µg/mL (≈ 0.361 µM) | MIC Enterococcus faecalis (GC 6189) (Enterococcus sp.; strain GC 6189): 0.5 µg/mL (≈ 0.361 µM)
